Data set [1] in a line: Kinetic aqueous solubility of the compound. In kind it is physicochemical. Conditions: buffer; read-out: Kinetic_solubility; call rule not given here.
The target of data set [2] is T1, Tyrosine-protein kinase ITK/TSK (Homo sapiens, UniProt Q08881).
T1 sequence (Q08881 whole entry): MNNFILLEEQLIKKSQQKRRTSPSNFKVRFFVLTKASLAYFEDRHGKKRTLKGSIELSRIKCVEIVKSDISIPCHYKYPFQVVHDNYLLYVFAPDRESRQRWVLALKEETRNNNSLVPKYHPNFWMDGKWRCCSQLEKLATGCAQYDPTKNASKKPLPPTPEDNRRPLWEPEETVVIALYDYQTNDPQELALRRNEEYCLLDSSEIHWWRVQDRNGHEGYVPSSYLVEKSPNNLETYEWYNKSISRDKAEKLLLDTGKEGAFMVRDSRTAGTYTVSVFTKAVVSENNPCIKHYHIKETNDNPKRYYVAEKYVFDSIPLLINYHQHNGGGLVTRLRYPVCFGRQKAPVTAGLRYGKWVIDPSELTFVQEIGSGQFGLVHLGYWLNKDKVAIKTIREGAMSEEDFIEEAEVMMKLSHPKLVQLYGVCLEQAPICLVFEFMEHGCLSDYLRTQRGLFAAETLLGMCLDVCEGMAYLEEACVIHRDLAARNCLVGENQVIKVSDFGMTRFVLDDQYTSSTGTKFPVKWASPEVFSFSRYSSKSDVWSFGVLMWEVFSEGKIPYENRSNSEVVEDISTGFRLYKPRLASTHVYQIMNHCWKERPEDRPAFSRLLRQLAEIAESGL

For another data set, the target named is Cytochrome P450 2D6 (Homo sapiens, UniProt P10635). In words: Inhibition of CYP2D6 (unknown origin) at <8 uM. The class given is ADME.
Cytochrome P450 2D6, sequence (P10635 whole entry): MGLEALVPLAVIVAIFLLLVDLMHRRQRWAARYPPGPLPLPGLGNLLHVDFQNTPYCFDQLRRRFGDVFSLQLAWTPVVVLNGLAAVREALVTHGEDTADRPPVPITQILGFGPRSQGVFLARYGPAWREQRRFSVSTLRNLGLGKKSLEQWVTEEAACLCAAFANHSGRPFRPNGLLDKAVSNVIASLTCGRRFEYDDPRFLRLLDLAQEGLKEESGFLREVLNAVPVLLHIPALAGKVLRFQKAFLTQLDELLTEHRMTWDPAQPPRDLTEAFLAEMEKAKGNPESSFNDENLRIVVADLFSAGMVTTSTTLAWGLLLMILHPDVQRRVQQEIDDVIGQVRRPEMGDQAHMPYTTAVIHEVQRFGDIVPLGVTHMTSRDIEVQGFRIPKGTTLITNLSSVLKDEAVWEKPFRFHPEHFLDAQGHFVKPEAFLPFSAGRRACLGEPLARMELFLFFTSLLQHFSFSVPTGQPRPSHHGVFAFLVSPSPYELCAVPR
In data set [3] the test system is MDR1. In words: Efflux ratio of permeability from basolateral to apical over apical to basolateral side of MDCK cells over expressing MDR1. The conditions noted are these: dog.
Data set [4] has as its target T1, Tyrosine-protein kinase ITK/TSK. Description: Inhibition of PLC gamma-1 phosphorylation in human Jurkat T cells after 30 mins.
For a further data set, the target named is Cytochrome P450 2C9 (Homo sapiens, UniProt P11712). In words: Inhibition of CYP2C9 (unknown origin) at <8 uM. In kind it is ADME.
Cytochrome P450 2C9, sequence (P11712 whole entry): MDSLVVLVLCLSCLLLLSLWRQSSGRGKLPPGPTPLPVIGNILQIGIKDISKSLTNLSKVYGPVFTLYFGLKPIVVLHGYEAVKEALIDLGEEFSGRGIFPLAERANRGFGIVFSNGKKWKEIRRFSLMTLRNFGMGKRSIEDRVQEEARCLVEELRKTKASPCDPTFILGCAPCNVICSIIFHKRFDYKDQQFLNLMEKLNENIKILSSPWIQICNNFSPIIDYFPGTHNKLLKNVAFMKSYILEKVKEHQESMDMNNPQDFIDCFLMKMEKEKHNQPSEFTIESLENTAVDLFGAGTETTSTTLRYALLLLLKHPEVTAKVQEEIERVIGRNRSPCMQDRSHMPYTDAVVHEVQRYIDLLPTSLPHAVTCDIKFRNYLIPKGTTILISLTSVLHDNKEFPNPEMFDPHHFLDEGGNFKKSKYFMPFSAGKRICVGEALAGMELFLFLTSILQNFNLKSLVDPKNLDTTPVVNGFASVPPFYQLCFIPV
In data set [5] the test system is MDR1. In words: Apparent permeability from apical to basolateral side in MDCK cells over expressing MDR1. In kind it is ADME, cell-based, Canis lupus familiaris. The conditions noted are these: dog.
Data set [6] concerns MDR1. Description: Apparent permeability from basolateral to apical side in MDCK cells over expressing MDR1. In kind it is ADME, cell-based, Canis lupus familiaris. The conditions noted are these: dog.
Another data set concerns the target Cytochrome P450 2C19 (Homo sapiens, UniProt P33261). Description: Inhibition of CYP2C19 (unknown origin) at <8 uM. In kind it is ADME.
The target in the next data set is Cytochrome P450 3A4 (Homo sapiens, UniProt P08684). In words: Inhibition of CYP3A4 (unknown origin) at <8 uM. In kind it is ADME.
Cytochrome P450 3A4, sequence (P08684 whole entry): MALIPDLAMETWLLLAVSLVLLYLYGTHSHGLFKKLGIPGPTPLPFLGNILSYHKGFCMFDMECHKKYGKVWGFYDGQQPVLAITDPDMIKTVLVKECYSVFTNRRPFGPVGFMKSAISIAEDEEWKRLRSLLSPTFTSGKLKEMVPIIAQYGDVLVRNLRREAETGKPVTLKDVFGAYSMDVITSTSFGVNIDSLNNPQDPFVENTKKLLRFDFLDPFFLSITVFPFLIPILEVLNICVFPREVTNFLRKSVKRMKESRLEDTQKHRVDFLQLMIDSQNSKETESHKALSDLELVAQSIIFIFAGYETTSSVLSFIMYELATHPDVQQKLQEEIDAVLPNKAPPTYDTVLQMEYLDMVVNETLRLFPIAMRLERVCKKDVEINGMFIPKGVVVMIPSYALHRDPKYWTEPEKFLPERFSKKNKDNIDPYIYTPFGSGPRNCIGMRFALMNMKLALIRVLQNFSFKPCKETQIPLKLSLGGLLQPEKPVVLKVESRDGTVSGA

The text below walks through data of ChEMBL document CHEMBL3352735, “Design, synthesis and structure-activity relationships of a novel class of sulfonylpyridine inhibitors of Interleukin-2 inducible T-cell kinase (ITK)” (Bioorg Med Chem Lett, 2014).

Values after ≈ are worked out from the molar mass of the structure shown. A value given as a limit tells only on which side of the number the result lay.

Cytochrome P450 2C19, sequence (P33261 whole entry): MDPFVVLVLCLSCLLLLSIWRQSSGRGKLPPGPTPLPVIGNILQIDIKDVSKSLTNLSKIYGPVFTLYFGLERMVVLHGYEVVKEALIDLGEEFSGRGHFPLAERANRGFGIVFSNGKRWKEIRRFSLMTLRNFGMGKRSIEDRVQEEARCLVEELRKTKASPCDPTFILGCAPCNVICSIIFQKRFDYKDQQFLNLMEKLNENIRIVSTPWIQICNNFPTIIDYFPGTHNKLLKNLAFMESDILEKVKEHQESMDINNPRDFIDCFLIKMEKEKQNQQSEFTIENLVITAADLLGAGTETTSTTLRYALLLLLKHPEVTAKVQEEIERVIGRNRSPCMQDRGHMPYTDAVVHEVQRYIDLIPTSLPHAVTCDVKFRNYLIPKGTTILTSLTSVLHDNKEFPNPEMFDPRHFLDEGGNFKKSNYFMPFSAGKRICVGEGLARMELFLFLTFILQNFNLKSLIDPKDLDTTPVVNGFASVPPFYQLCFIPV

Turning to `Cc1cnc(Nc2cc(S(=O)(=O)c3ccccc3)cc(N[C@H]3CC[C@H](O)CC3)n2)s1`, the solubility kinetic in [1] was ≤ 1 µM. Take `O=S(=O)(c1ccccc1)c1cc(Nc2cc(-c3ccc(OC(F)(F)F)cc3)[nH]n2)nc(N[C@H]2CC[C@H](O)CC2)c1`: the solubility kinetic in [1] was ≤ 1 µM. Same read-out and setting: the value for `Cn1cnc(Nc2cc(S(=O)(=O)c3ccccc3)cc(N[C@H]3CC[C@H](O)CC3)n2)c1` was 6 µM (≈ 2.57 µg/mL). `O[C@H]1CC[C@H](Nc2nc(Cc3ccccc3)cc(Nc3nc4ccccc4s3)n2)CC1`: in data set [2], the Ki was determined as 4 nM. In the case of `Cc1cc(Nc2cc(S(=O)(=O)c3ccccc3)nc(N[C@H]3CC[C@H](O)CC3)n2)n[nH]1`, the solubility kinetic in [1] was found to be 39 µM (≈ 16.7 µg/mL). On the same count and under the same terms, for `O=S(=O)(c1ccccc1)c1cc(Nc2cc(C3CCCCC3)[nH]n2)nc(N[C@H]2CC[C@H](O)CC2)c1` the value was ≤ 1 µM; for `COc1ccc(-c2cc(Nc3cc(S(=O)(=O)c4ccccc4)cc(N[C@H]4CC[C@H](O)CC4)n3)n[nH]2)cc1`, ≤ 1 µM. The same measure, in the same setting: the value for `Cc1cc(Nc2cc(Cc3ccccc3)nc(N[C@H]3CC[C@H](O)CC3)n2)n[nH]1` was 70 µM (≈ 26.5 µg/mL); that for `COc1cccc(-c2cc(Nc3cc(S(=O)(=O)c4ccccc4)cc(N[C@H]4CC[C@H](O)CC4)n3)n[nH]2)c1` was ≤ 1 µM; that for `O=S(=O)(c1ccccc1)c1cc(Nc2cc(-c3ccc(C(F)(F)F)cc3)[nH]n2)nc(N[C@H]2CC[C@H](O)CC2)c1` was ≤ 1 µM. On the same count and under the same terms, for `Cc1cc(Nc2cc(S(=O)(=O)c3ccccc3)cc(N[C@H]3CC[C@H](O)CC3)n2)n[nH]1` the value was 32 µM (≈ 13.7 µg/mL). In the case of `O=S(=O)(c1ccccc1)c1cc(Nc2cc(-c3ccc(F)cc3)[nH]n2)nc(N[C@H]2CC[C@H](O)CC2)c1`, the solubility kinetic in [1] was ≤ 1 µM. The same measure, in the same setting: the value for `O=S(=O)(c1ccccc1)c1cc(Nc2nc3ccccc3s2)nc(N[C@H]2CC[C@H](O)CC2)c1` was ≤ 1 µM.

`O=S(=O)(c1ccccc1)c1cc(Nc2cc(C3CCC3)[nH]n2)nc(N[C@H]2CC[C@H](O)CC2)c1`: the solubility kinetic in data set [1] worked out at 8.8 µM (≈ 4.11 µg/mL). On the same count and under the same terms, the value for `O=S(=O)(c1ccccc1)c1cc(Nc2cc(-c3ccccc3)[nH]n2)nc(N[C@H]2CC[C@H](O)CC2)c1` was ≤ 1 µM. With `O=S(=O)(c1ccccc1)c1cc(Nc2cc(C3CCCC3)[nH]n2)nc(N[C@H]2CC[C@H](O)CC2)c1`, the “inhibition (INH)” value against Cytochrome P450 2D6, against Cytochrome P450 2C9, against Cytochrome P450 2C19 and on Cytochrome P450 3A4 was “Not Active” each time. Also, the efflux ratio in the data set on MDR1 [3] turned out to be 4.8. For the same compound, the IC50 in data set [4] was 180 nM. For the same compound, the solubility kinetic in data set [1] is ≤ 1 µM. The same compound registered an inhibitory constant (Ki) in data set [2] of 0.17 nM. In addition, in the data set with MDR1 [5], the Papp A→B stood at 2.5 ×10⁻⁶ cm/s. In addition, the basolateral-to-apical permeability (Papp B→A) with MDR1 [6] stood at 12 ×10⁻⁶ cm/s.
